Measurements taken from BigSolDB 2.1.

Cn1cc([N+](=O)[O-])cn1
solubility (mole fraction)
Conditions	283.15 K	288.15 K	293.15 K	298.15 K	303.15 K	308.15 K	313.15 K	318.15 K	323.15 K
in 1,2-dichlorobenzene	0.000121	0.000147	0.000179	0.000215	0.000266	0.000331	0.000402	0.000492	0.000607
in 2-butanone	0.0093	0.0098	0.0112	0.0139	0.0162	0.0177	0.021	0.0242	0.0285
in 2-pentanol	0.000501	0.000685	0.000871	0.0011	0.00142	0.00175	0.00221	0.00278	0.00348
in acetic acid	0.000218	0.000296	0.00039	0.000508	0.000633	0.000776	0.000925	0.00108	0.0012
in acetone	0.0192	0.0239	0.0299	0.0379	0.0485	0.0626	0.0814	0.107	0.141
in acetonitrile	0.00299	0.00334	0.00423	0.00507	0.006	0.00673	0.00756	0.00937	0.0117
in ethanol	0.00483	0.00511	0.00546	0.00581	0.00633	0.00694	0.00736	0.00785	0.00823
in ethyl acetate	0.0126	0.0143	0.0162	0.0183	0.0208	0.0235	0.0265	0.0299	0.0337
in isopropanol	0.00185	0.00235	0.00292	0.00363	0.00455	0.00566	0.00697	0.0085	0.0102
in methanol	0.00628	0.00699	0.00754	0.00835	0.00923	0.0103	0.0113	0.0126	0.014
in methyl acetate	0.0161	0.0185	0.022	0.0255	0.0293	0.0351	0.0401	0.0461	0.0519
in n-butanol	0.00205	0.00266	0.00323	0.00438	0.00559	0.00709	0.0091	0.0123	0.0154
in n-pentanol	0.0016	0.00182	0.0021	0.0024	0.00278	0.00325	0.0038	0.00469	0.0054
in n-propanol	0.00209	0.00229	0.00259	0.00296	0.00331	0.00382	0.00425	0.00487	0.00553
in sec-butanol	0.000727	0.000891	0.00112	0.00151	0.00213	0.00287	0.00382	0.00501	0.00632
in toluene	0.00714	0.00823	0.0095	0.0112	0.0132	0.0156	0.0189	0.0232	0.0276
in water	7.5e-05	9.4e-05	0.000113	0.000127	0.000154	0.000181	0.000222	0.000273	0.000331
